ChEMBL document CHEMBL1151822, “Saldedines A and B, dibromo proaporphine alkaloids from a Madagascan tunicate” (J Nat Prod, 2009)

Experiment: Toxicity in Artemia salina
Type: organism-based
Details: in vivo, read-out: LD50 (the source's name)

Structure (SMILES)	LC50
COc1cc2c3c(c1O)C1(C=C(Br)C(=O)C(Br)=C1)C[C@@H]3N(C)CC2 [SALDEDINE A]	4.4 µM
COc1cc2c3c(c1O)C1(C=C(Br)C(O)C(Br)=C1)C[C@@H]3N(C)CC2 (some centres not stated) [SALDEDINE B]	10.9 µM
